The results in this text go back to PMC4106271 (Journal of Medicinal Chemistry, 2014).

Series [1] has as its system male C57BL/6N mice. The series is described as follows: Open field test. It counts as in vivo. The settings on record: ip, total ambulation. How it is done: (§1) Male mice (C57BL/6N) were obtained from Charles River Laboratories (Sulzfeld, Germany). For maintenance, mice were group-housed (maximum five mice per type IIL cage) with free access to food and water. At least 24 h before the commencement of experiments, mice were transferred to the testing facility, where they were given free access to food and water. The temperature in the maintenance and testing facilities was 23 ± 1 °C; the humidity was 40–60%; a 12 h light–dark cycle was in operation (lights on from 07:00 to 19:00). Only male mice aged 3–6 months were tested.
(§2) Compounds were applied by intraperitoneal (ip) injection 30 min before each test. Testing solutions were prepared in a solvent composed of 0.9% NaCl solution with 10% dimethyl sulfoxide (DMSO) and 3% Tween 80. […] All doses are indicated as milligrams per kilogram of body weight of the animal.
Ambulation was tested over 10 min in a 50 × 50 cm flexfield box equipped with infrared rearing detection. Illumination was set to 150 Lux. The animals’ explorative behavior was analyzed by use of the ActiMot 2 equipment and software (TSE-systems, Bad Homburg, Germany). Arenas were subdivided into border (up to 8 cm from wall), center (20 × 20 cm, 16% of total area), and intermediate area according to the recommendations of EMPRESS (European Mouse Phenotyping Resource of Standardised Screens; http://empress.har.mrc.ac.uk).

The target of another series is T1, α1β1γ2S GABAA receptors (Homo sapiens, UniProt P14867+P18505).
T1 construct: expressed in transfected cells; host or cells: Xenopus laevis oocytes injected with cRNA (pCMV cDNA templates)
Put plainly: Two-microelectrode voltage clamp, IGABA modulation, α1β1γ2S. The note with it: for nH: Hill coefficient. The class given is cell-based. How it is done:
(§3) Preparation of stage V–VI oocytes from X. laevis and synthesis of capped runoff poly(A) cRNA transcripts from linearized cDNA templates (pCMV vector) was performed as previously described.[49] […] Follicle membranes from isolated oocytes were enzymatically digested with 2 mg/mL collagenase (type 1A, Sigma–Aldrich, Vienna, Austria).
(§4) Selected oocytes were injected with 10–50 nL of DEPC-treated water (diethyl pyrocarbonate, Sigma, Vienna, Austria) containing the different GABAA cRNAs at a concentration of approximately 300–3000 pg·nL^–1·subunit^–1.
(§5) To ensure expression of the γ2S subunit in the case of α1/2/3/5β2/3γ2S receptors, cRNAs were mixed in a ratio of 1:1:10. […] The amount of cRNAs was determined by means of a NanoDrop ND-1000 (Kisker-Biotech, Steinfurt, Germany).
(§6) Oocytes were stored at +18 °C in modified ND96 solution (90 mM NaCl, 1 mM CaCl2, 1 mM KCl, 1 mM MgCl2·6H2O, and 5 mM HEPES [4-(2-hydroxyethyl)-1-piperazineethanesulfonic acid], pH 7.4, all from Sigma–Aldrich, Vienna, Austria).
(§7) Chloride currents through GABAA receptors (IGABA) were measured at room temperature (+21 ± 1 °C) by means of a two-microelectrode voltage clamp technique making use of a Turbo TEC-05X amplifier (npi electronic, Tamm, Germany). IGABA were elicited at a holding potential of –70 mV. Data acquisition was carried out by means of an Axon Digidata 1322A interface using pCLAMP v.10 (Molecular Devices, Sunnyvale, CA). The modified ND96 solution was used as bath solution.
(§8) GABA and the studied derivatives were applied by means of the ScreeningTool (npi electronic, Tamm, Germany) fast perfusion system as described previously.[50] To elicit IGABA, the chamber was perfused with 120 μL of GABA- or compound-containing solution at a volume rate of 300 μL/s.[34] Care was taken to account for possible slow recovery from increasing levels of desensitization in the presence of high drug concentrations. The duration of washout periods was therefore extended from 1.5 min (<10 μM compounds) to 30 min (≥10 μM compounds). Oocytes with maximal current amplitudes >3 μA were discarded to exclude voltage clamp errors.
(§9) Stimulation of chloride currents by modulators of the GABAA receptor was measured at a GABA concentration eliciting between 3% and 7% of the maximal current amplitude (EC3–7). The GABA EC3–7 was determined for each oocyte individually. Enhancement of the chloride current was defined as (IGABA+compd/IGABA) – 1, where IGABA+compd is the current response in the presence of a given compound and IGABA is the control GABA current. IGABA-max reflects the maximal IGABA enhancement. […] Statistical significance was calculated by paired Student t-test with a confidence interval of <0.05.

A further series addresses T2, α5β2γ2S GABAA receptors (Homo sapiens, UniProt P31644+P47870).
T2 construct: expressed in transfected cells; host or cells: Xenopus laevis oocytes injected with cRNA (pCMV cDNA templates)
The series is described as follows: Two-microelectrode voltage clamp, IGABA modulation, α5β2γ2S. It counts as cell-based. The note with it: for nH: Hill coefficient. How it is done: as §3, §4, §5, §6, §7, §8, §9

The target in a further series is T3, α3β2γ2S GABAA receptors (Homo sapiens, UniProt P34903+P47870).
T3 construct: expressed in transfected cells; host or cells: Xenopus laevis oocytes injected with cRNA (pCMV cDNA templates)
Put plainly: Two-microelectrode voltage clamp, IGABA modulation, α3β2γ2S. The class given is cell-based. The note with it: for nH: Hill coefficient. How it is done:
as §3, §4, §5, §6, §7, §8, §9

The next series concerns the target T4, α1β2γ2S GABAA receptors (Homo sapiens, UniProt P14867+P47870).
T4 construct: expressed in transfected cells; host or cells: Xenopus laevis oocytes injected with cRNA (pCMV cDNA templates)
The series is described as follows: Two-microelectrode voltage clamp, IGABA modulation, α1β2γ2S. The class given is cell-based. The note with it: for nH: Hill coefficient of concentration–response curve; for EC50: IGABA enhancement, GABA EC3–7, Xenopus oocytes. How it is done: as §3, §4, §5, §6, §7, §8
as §9, with “enhancement. Concentration–response curves were generated and the data were fitted by nonlinear regression analysis using Origin Software (OriginLab Corp.). Data were fitted to the equation 1/(1 + (EC50/[compound])^nH), where nH is the Hill coefficient.” for “enhancement.”

Another series deals with T5, TRPV1 (Homo sapiens, UniProt Q8NER1).
T5 construct: expressed in transfected cells; host or cells: Xenopus laevis oocytes
Put plainly: TRPV1 activation in Xenopus oocytes. The class given is cell-based. The note with it: 100 μM, data not shown. The source says: (for review see ref ([47])). In order to rule out potential activation of TRPV1, selected compounds were studied in X. laevis oocytes for interaction with TRPV1 prior to in vivo characterization. […] Both compounds were further characterized concerning their anxiolytic activity (see also ref ([34])).

The target in a further series is T6, α4β2γ2S GABAA receptors (Homo sapiens, UniProt P47870+P48169).
T6 construct: expressed in transfected cells; host or cells: Xenopus laevis oocytes injected with cRNA (pCMV cDNA templates)
The series is described as follows: Two-microelectrode voltage clamp, IGABA modulation, α4β2γ2S. It counts as cell-based. The note with it: for nH: Hill coefficient. How it is done: as §3, §4, §5, §6, §7, §8, §9

In series [2] the test system is male C57BL/6N mice. Put plainly: Elevated plus maze test. The class given is in vivo. The settings on record: for time spent in open arms (OA) as percentage of total time: 30 min after application, EPM; for effect in the EPM test: ip, 30 min before test. How it is done:
as §1, §2
The animals’ behavior was tested over 5 min on an elevated plus maze 1 m above ground consisting of two closed and two open arms, each 50 × 5 cm in size. The test instrument was built from gray PVC; the height of closed arm walls was 20 cm. Illumination was set to 180 Lux. Animals were placed in the center, facing an open arm. Analysis of open and closed arm entries and time on open arm was automatically done with Video-Mot 2 equipment and software (TSE Systems, Bad Homburg, Germany).[34]

The target in the next series is T7, α2β2γ2S GABAA receptors (Homo sapiens, UniProt P47869+P47870).
T7 construct: expressed in transfected cells; host or cells: Xenopus laevis oocytes injected with cRNA (pCMV cDNA templates)
The series is described as follows: Two-microelectrode voltage clamp, IGABA modulation, α2β2γ2S. The class given is cell-based. The settings on record: for nH: Hill coefficient. How it is done:
as §3, §4, §5, §6, §7, §8, §9

T7 sequence (P47869 29-451): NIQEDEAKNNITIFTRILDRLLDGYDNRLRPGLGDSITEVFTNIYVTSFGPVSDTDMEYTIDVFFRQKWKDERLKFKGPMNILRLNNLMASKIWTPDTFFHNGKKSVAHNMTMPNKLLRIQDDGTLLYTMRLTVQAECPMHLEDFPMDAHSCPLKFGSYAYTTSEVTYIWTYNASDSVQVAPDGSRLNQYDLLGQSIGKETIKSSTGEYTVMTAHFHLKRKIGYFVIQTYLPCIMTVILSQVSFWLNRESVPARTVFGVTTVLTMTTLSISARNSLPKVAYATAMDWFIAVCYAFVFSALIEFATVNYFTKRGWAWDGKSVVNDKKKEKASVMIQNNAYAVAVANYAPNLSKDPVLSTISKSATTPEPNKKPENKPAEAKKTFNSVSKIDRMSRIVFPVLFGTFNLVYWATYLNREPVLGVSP
T7 sequence (P47870 26-512): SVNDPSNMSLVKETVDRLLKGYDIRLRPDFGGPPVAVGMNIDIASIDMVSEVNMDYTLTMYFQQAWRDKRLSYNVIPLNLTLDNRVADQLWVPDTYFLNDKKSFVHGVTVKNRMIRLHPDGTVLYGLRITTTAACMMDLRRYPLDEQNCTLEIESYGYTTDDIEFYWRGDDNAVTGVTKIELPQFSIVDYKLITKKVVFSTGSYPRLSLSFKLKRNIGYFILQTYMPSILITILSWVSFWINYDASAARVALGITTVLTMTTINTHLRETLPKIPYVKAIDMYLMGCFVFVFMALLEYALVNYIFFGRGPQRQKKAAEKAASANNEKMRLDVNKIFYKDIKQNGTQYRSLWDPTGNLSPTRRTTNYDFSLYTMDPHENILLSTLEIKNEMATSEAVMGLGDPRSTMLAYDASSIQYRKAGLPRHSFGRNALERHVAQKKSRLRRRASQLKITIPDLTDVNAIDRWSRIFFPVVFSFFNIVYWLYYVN
T7 sequence (P18507 40-467 isoform P18507-1 partner limits assumed): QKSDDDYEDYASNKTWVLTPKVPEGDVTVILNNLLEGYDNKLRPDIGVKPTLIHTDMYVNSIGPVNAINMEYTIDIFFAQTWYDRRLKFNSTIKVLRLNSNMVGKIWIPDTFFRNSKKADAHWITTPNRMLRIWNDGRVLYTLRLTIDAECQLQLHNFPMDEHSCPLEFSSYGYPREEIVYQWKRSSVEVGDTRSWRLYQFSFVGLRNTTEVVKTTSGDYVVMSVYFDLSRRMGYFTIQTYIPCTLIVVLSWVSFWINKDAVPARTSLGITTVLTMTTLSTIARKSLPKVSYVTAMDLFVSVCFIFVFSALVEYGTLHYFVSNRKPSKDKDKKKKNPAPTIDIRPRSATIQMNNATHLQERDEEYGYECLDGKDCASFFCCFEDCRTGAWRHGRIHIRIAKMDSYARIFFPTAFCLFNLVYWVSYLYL
T2 sequence (P31644 32-462): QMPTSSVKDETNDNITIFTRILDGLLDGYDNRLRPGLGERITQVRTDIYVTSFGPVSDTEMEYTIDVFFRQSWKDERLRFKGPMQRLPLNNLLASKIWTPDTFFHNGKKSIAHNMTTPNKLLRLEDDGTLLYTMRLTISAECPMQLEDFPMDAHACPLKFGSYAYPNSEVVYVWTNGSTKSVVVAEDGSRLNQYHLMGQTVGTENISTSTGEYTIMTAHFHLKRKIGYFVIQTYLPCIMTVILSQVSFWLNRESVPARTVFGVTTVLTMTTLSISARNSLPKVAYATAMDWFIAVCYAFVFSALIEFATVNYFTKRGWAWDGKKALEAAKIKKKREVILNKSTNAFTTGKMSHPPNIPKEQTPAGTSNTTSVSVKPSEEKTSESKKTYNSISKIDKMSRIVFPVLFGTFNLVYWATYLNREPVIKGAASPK
T2 sequence (P47870 26-512): as the sequence (P47870 26-512) above
T2 sequence (P18507 40-467 isoform P18507-1 partner limits assumed): as the sequence (P18507 40-467 isoform P18507-1 partner limits assumed) above
T1 sequence (P14867 28-456): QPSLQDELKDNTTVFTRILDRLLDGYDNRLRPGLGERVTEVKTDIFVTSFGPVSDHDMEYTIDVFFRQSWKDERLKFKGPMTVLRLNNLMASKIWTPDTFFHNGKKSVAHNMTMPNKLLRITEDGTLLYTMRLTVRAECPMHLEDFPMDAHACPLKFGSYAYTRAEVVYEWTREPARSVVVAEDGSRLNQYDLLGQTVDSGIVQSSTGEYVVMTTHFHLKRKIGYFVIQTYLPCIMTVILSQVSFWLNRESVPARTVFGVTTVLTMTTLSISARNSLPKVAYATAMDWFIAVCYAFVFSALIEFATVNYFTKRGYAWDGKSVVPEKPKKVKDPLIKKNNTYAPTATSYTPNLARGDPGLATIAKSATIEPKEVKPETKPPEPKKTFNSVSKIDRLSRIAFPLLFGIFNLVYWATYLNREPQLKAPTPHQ
T1 sequence (P18505 26-474): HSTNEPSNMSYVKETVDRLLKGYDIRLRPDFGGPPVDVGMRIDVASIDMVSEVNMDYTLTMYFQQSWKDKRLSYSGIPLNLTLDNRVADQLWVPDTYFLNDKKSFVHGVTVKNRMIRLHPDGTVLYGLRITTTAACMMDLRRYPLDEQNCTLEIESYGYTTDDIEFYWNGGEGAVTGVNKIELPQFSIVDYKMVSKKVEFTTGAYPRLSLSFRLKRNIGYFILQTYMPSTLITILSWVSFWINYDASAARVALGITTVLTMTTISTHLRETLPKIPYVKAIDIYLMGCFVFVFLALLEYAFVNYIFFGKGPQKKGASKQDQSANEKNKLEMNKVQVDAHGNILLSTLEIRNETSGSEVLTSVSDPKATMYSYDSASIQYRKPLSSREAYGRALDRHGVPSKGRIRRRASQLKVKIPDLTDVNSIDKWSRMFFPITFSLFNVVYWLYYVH
T1 sequence (P18507 40-467 isoform P18507-1 partner limits assumed): as the sequence (P18507 40-467 isoform P18507-1 partner limits assumed) above
T4 sequence (P14867 28-456): as the sequence (P14867 28-456) above
T4 sequence (P47870 26-512): as the sequence (P47870 26-512) above
T4 sequence (P18507 40-467 isoform P18507-1 partner limits assumed): as the sequence (P18507 40-467 isoform P18507-1 partner limits assumed) above
T6 sequence (P48169 36-554): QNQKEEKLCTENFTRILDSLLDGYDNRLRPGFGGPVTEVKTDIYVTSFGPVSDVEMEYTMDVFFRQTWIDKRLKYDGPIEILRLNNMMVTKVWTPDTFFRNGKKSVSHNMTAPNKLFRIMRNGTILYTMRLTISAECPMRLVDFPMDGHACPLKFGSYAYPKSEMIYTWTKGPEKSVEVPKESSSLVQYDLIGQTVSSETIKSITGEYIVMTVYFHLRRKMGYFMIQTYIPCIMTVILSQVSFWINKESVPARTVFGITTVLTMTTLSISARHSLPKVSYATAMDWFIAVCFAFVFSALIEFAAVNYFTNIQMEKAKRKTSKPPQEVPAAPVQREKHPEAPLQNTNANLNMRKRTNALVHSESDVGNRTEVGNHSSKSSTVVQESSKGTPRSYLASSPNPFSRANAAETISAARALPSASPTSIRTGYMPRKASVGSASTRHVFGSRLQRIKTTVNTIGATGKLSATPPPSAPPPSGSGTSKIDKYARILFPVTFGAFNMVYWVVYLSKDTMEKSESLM
T6 sequence (P47870 26-512): as the sequence (P47870 26-512) above
T6 sequence (P18507 40-467 isoform P18507-1 partner limits assumed): as the sequence (P18507 40-467 isoform P18507-1 partner limits assumed) above
T3 sequence (P34903 29-492): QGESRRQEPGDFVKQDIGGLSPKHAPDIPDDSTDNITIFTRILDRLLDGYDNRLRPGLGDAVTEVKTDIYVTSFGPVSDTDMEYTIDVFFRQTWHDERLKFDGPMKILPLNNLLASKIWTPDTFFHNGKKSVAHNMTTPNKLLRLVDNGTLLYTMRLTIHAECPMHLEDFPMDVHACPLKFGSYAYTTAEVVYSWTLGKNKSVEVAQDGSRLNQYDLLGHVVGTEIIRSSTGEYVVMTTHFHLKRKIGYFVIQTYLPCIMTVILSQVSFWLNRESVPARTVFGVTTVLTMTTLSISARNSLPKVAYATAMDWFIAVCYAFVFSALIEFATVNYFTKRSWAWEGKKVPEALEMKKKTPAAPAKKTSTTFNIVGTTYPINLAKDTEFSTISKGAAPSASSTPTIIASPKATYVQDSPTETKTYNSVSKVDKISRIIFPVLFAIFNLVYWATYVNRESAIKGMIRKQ
T3 sequence (P47870 26-512): as the sequence (P47870 26-512) above
T3 sequence (P18507 40-467 isoform P18507-1 partner limits assumed): as the sequence (P18507 40-467 isoform P18507-1 partner limits assumed) above
T5 sequence (Q8NER1 whole entry, species assumed): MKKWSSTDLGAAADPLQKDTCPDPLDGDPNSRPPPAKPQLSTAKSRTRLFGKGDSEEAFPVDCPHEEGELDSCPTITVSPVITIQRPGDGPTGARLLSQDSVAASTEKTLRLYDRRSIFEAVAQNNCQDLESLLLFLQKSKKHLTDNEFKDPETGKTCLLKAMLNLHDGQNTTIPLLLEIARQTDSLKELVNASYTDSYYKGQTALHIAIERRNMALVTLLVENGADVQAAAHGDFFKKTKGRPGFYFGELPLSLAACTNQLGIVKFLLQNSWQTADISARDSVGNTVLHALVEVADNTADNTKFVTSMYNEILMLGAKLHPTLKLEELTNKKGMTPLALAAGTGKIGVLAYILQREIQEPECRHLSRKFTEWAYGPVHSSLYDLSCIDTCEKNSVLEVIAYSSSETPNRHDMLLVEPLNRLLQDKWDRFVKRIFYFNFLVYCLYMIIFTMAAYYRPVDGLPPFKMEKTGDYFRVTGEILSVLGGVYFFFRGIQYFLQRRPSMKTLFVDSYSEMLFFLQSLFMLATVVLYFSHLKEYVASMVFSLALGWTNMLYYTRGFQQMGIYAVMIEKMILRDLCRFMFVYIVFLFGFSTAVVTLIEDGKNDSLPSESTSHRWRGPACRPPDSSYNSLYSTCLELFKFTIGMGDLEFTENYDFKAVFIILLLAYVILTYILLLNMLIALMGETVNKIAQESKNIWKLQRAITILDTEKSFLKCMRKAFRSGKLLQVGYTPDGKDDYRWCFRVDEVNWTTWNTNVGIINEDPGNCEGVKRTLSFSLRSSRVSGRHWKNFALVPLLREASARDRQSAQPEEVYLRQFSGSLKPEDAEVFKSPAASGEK

A word on the EC50: it is the midpoint of the concentration-response curve. As to `CCCN(CCC)C(=O)/C=C/C=C/c1ccc2c(c1)OCO2` [Compound 23, (2E,4E)-5-(1,3-benzodioxol-5-yl)-N,N-dipropyl-2,4-pentadienamide], the “sedation in the OF test” value in the series on male C57BL/6N mice [1] is “little sedation”. Further, the concentration giving a half-maximal response (EC50) on α1β1γ2S GABAA receptors is 57.5 ± 7.3 µM; at α5β2γ2S GABAA receptors it was 61.9 ± 10.4 µM; at α3β2γ2S GABAA receptors, 36.6 ± 7.2 µM; on α1β2γ2S GABAA receptors it was 51.7 ± 9.5 µM; at α4β2γ2S GABAA receptors it was 34.7 ± 3.8 µM; on α2β2γ2S GABAA receptors, 26.4 ± 6.6 µM. For the same compound, the nH on α1β1γ2S GABAA receptors turned out to be 1.8 ± 0.1; on α5β2γ2S GABAA receptors it was 1.4 ± 0.1; on α3β2γ2S GABAA receptors, 1.9 ± 0.3; at α1β2γ2S GABAA receptors it was 3.1 ± 0.8; at α4β2γ2S GABAA receptors, 1.7 ± 0.1; on α2β2γ2S GABAA receptors, 1.9 ± 0.4. Also, on TRPV1, the “activation of TRPV1” value is “did not activate TRPV1”. Also, the “time spent in open arms (OA) as percentage of total time” value in the series on male C57BL/6N mice [2] (0.3 mg/kg ip) is given as 45.6% ± 3.2%. In the series on male C57BL/6N mice [2], the “effect in the EPM test” value is reported as “anxiolytic effects”.

As for `CCCCN(CCCC)C(=O)/C=C/C=C/c1ccc2c(c1)OCO2` [Compound 25, (2E,4E)-5-(1,3-Benzodioxol-5-yl)-N,N-dibutyl-2,4-pentadienamide], in the series on male C57BL/6N mice [1], the “sedation in the OF test” value was “little sedation”. In addition, the 50% effective concentration (EC50) worked out at 15.9 ± 4.9 µM at α1β1γ2S GABAA receptors; 17.2 ± 1.4 µM at α5β2γ2S GABAA receptors; 16 ± 2.7 µM at α3β2γ2S GABAA receptors; 13.8 ± 1.8 µM at α1β2γ2S GABAA receptors; 56.7 ± 21 µM on α4β2γ2S GABAA receptors; 14.8 ± 1.9 µM on α2β2γ2S GABAA receptors. Also, the nH worked out at 1.3 ± 0.6 on α1β1γ2S GABAA receptors; 1.7 ± 0.2 at α5β2γ2S GABAA receptors; 1.8 ± 0.1 on α3β2γ2S GABAA receptors; 1.8 ± 0.1 on α1β2γ2S GABAA receptors; 1.3 ± 0.3 on α4β2γ2S GABAA receptors; 2.2 ± 0.3 at α2β2γ2S GABAA receptors. Besides, on TRPV1, the “activation of TRPV1” value was “did not activate TRPV1”. The entries for the “time spent in open arms (OA) as percentage of total time” value in the series on male C57BL/6N mice [2] (0.3 mg/kg ip) and in the series on male C57BL/6N mice [2] (3 mg/kg ip) were 39.8% ± 4.1% and 43.9% ± 4.3%, respectively. Besides, the “effect in the EPM test” value in the series with male C57BL/6N mice [2] is “anxiolytic effects”.
